# From PubChem BioAssay AID1963831 (Molecular Pharmacology Branch, DTP, NCI, 2024)
# Test system: 889142-216-R-J1-PDC complex spheroid viability
# Assay: Anticancer human tumor 889142-216-R-J1-PDC patient-derived bladder carcinoma cell line growth inhibition [POLQ]
# Details: for IC50: curve of first compound; for viability, T/C: stronger effect = lower value
# Method: Multicellular complex tumor spheroid response to Polymerase (POL) inhibitors (novobiocin, ART-558, RP6685) in combination with a variety of drugs and investigational agents in selected tumor cell lines
# The POL inhibitors (novobiocin, ART-558, and RP6685) were evaluated both individually and in combination with standard of care and investigational anticancer small molecules within a complex spheroid model of solid tumors. . Complex spheroids include a stromal component modeled by human endothelial cells (HUVEC) and fibroblasts modeled by human mesenchymal stem cells (MSCs). The concentration ranges selected for each drug and investigational agent were based upon clinically achievable concentrations if the clinical Cmax of the agent was known.
# Compounds. The drugs and investigational agents: novobiocin (NSC847541), ART-558 (NSC835418), RP-6685 (NSC848927), peposertib (NSC802822), ceralasertib (NSC780249), elimusertib (NSC800525), camonsertib (NSC841442), AZD-1390 (NSC803789), olaparib (NSC753686), talazoparib (NSC767125), rucaparib (NSC756644), sotorasib (NSC818433), MRTX-1133 (NSC836407), SN-38 (NSC673596), topotecan (NSC609699), epotoside (NSC141540), doxorubicin (NSC123127), gemcitabine (NSC613327), 5-fluorouracil (NSC19893), paclitaxel (NSC125973), vemurafenib (NSC761431), MSA-2 (NSC828583), SN-011 (NSC837082), adavosertib (NSC754352), prexasertib (NSC758257), carboplatin (NSC241240) and oxaliplatin (NSC266046), were obtained from the National Cancer Institute (NCI) Developmental Therapeutics Program Chemical Repository (21). The FDA-approved anticancer drug set is available from the Developmental Therapeutics Program at https://dtp.cancer.gov/organization/dscb/obtaining/. […] The stock solutions were prepared in dimethyl sulfoxide (DMSO, Sigma-Aldrich, St. Louis, MO, cat. D2650), except for the platinum compounds which were prepared in saline (Quality Biological, Gaithersburg, MD, cat. 114-055-101), at 800-fold the tested concentration and stored at -70 degrees C prior to their use. All drugs and investigational agents were tested over a range starting from a high concentration at or near the clinical Cmax and decreasing in half-log increments. If the clinical Cmax for an agent had not been determined, the highest concentration tested was 10 microM, except for SN-38, which was tested at a high concentration of 1 microM.
# Cell Culture. All cells were maintained in an incubator at 37 degrees C and 5% CO2 with 95% humidity. The PDC lines were cultured according to standard operating procedures established by the NCI PDMR (https://pdmr.cancer.gov). Table 3 of the manuscript, lists the cell lines along with the number of the three cell types plated to form the mct-spheroids and media for tumor cell growth. After thawing, all PDC lines, except 997537-175-T-J1-PDC and 415267-285-R-J2-PDC, were cultured in Matrigel-coated flasks prepared with a working solution of 1X Ham's F-12 nutrient mix, without supplementation (Thermo Fisher Scientific, cat. 11765054), 100 U/mL penicillin-streptomycin (Thermo Fisher Scientific, cat. 15140122), and 2.5% Matrigel (Corning Inc., Corning, NY, cat. 354248) for the first three passages. The two PDC lines 997537-175-T-J1-PDC and 415267-285-R-J2-PDC were cultured on uncoated flasks. The 857933-349-R-J2-PDC line was cultured in 6C/Colon 1B media containing advanced DMEM/F-12 (Thermo Fisher Scientific, cat. 12634028), 10 mM HEPES (Thermo Fisher Scientific, cat. 15630080), 1X GlutaMAX supplement (Thermo Fisher Scientific, cat. 35050061), 0.1 mg/mL primocin (InvivoGen, San Diego, CA, cat. ant-pm-2), 10% defined fetal bovine serum, heat inactivated (HyClone Laboratories Inc., Logan, UT, cat. SH30070.03HI), 50% L-WRN conditioned media (ATCC, cat. CRL-3276), 1.25 mM N-Acetyl-L-cysteine (Sigma-Aldrich, cat. A9165), 10 mM nicotinamide (Sigma-Aldrich, cat. N0636), 1X B-27 supplement (Thermo Fisher Scientific, cat. 17504044), 1X N-2 supplement (Thermo Fisher Scientific, cat. […]
# [1] = second compound 0.0316 µM, first compound 0.0316 µM
# [2] = second compound 0.0316 µM, first compound 0.1 µM
# [3] = second compound 0.1 µM, first compound 0.0316 µM
# [4] = second compound 0.1 µM, first compound 0.1 µM
# [5] = second compound 0.316 µM, first compound 0.0316 µM
# [6] = second compound 0.316 µM, first compound 0.1 µM
# [7] = second compound 1 µM, first compound 0.0316 µM
# [8] = second compound 1 µM, first compound 0.1 µM
# [9] = second compound 3.16 µM, first compound 0.0316 µM
# [10] = second compound 3.16 µM, first compound 0.1 µM
# [11] = second compound 10 µM, first compound 0.0316 µM
# [12] = second compound 10 µM, first compound 0.1 µM
# 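Also: spheroids exposed to compounds for seven days.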
# 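For viability, T/C in this document: 100% = DMSO vehicle control viability.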
structure (smiles),measurement,setting,value
COc1cccc2c1C(=O)c1c(O)c3c(c(O)c1C2=O)CC(O)(C(=O)CO)CC3OC1CC(N)C(O)C(C)O1 (centres undefined) + Cc1cccc(N(C)C(=O)C2C(O)CCN2c2nc(C)cc(C(F)(F)F)c2C#N)c1,IC50,second compound 0.0316 µM,244 nM
same,IC50,second compound 0.1 µM,148 nM
same,IC50,second compound 0.316 µM,150 nM
same,IC50,second compound 1 µM,196 nM
same,IC50,second compound 3.16 µM,183 nM
same,IC50,second compound 10 µM,135 nM
same,"viability, T/C",[1],70.9%
same,"viability, T/C",[2],69.3%
same,"viability, T/C","second compound 0.0316 µM, first compound 0.316 µM",44.2%
same,"viability, T/C","second compound 0.0316 µM, first compound 1 µM",2.17%
same,"viability, T/C","second compound 0.0316 µM, first compound 3.16 µM",0.48%
same,"viability, T/C","second compound 0.0316 µM, first compound 10 µM",1.56%
same,"viability, T/C",[3],77%
same,"viability, T/C",[4],56.6%
same,"viability, T/C","second compound 0.1 µM, first compound 0.316 µM",34.7%
same,"viability, T/C","second compound 0.1 µM, first compound 1 µM",2.14%
same,"viability, T/C","second compound 0.1 µM, first compound 3.16 µM",1.04%
same,"viability, T/C","second compound 0.1 µM, first compound 10 µM",1.26%
same,"viability, T/C",[5],57.3%
same,"viability, T/C",[6],59.7%
same,"viability, T/C","second compound 0.316 µM, first compound 0.316 µM",35.2%
same,"viability, T/C","second compound 0.316 µM, first compound 1 µM",4.5%
same,"viability, T/C","second compound 0.316 µM, first compound 3.16 µM",0.81%
same,"viability, T/C","second compound 0.316 µM, first compound 10 µM",0.94%
same,"viability, T/C",[7],58.9%
same,"viability, T/C",[8],78%
same,"viability, T/C","second compound 1 µM, first compound 0.316 µM",37%
same,"viability, T/C","second compound 1 µM, first compound 1 µM",2.29%
same,"viability, T/C","second compound 1 µM, first compound 3.16 µM",1.29%
same,"viability, T/C","second compound 1 µM, first compound 10 µM",1.22%
same,"viability, T/C",[9],61.8%
same,"viability, T/C",[10],69%
same,"viability, T/C","second compound 3.16 µM, first compound 0.316 µM",36.2%
same,"viability, T/C","second compound 3.16 µM, first compound 1 µM",1.55%
same,"viability, T/C","second compound 3.16 µM, first compound 3.16 µM",1.05%
same,"viability, T/C","second compound 3.16 µM, first compound 10 µM",0.85%
same,"viability, T/C",[11],55.7%
same,"viability, T/C",[12],62.4%
same,"viability, T/C","second compound 10 µM, first compound 0.316 µM",24.7%
same,"viability, T/C","second compound 10 µM, first compound 1 µM",0.91%
same,"viability, T/C","second compound 10 µM, first compound 3.16 µM",0.87%
same,"viability, T/C","second compound 10 µM, first compound 10 µM",1.31%
Cn1ncnc1[C@H]1c2n[nH]c(=O)c3cc(F)cc(c23)N[C@@H]1c1ccc(F)cc1 + Cc1cccc(N(C)C(=O)C2C(O)CCN2c2nc(C)cc(C(F)(F)F)c2C#N)c1,IC50,second compound 0.0316 µM,> 100 nM
same,IC50,second compound 0.1 µM,> 100 nM
same,IC50,second compound 0.316 µM,> 100 nM
same,IC50,second compound 1 µM,> 100 nM
same,IC50,second compound 3.16 µM,> 100 nM
same,IC50,second compound 10 µM,> 100 nM
same,"viability, T/C","second compound 0.0316 µM, first compound 0.000316 µM",100%
same,"viability, T/C","second compound 0.0316 µM, first compound 0.001 µM",93.9%
same,"viability, T/C","second compound 0.0316 µM, first compound 0.00316 µM",132%
same,"viability, T/C","second compound 0.0316 µM, first compound 0.01 µM",74%
same,"viability, T/C",[1],85.1%
same,"viability, T/C",[2],67.8%
same,"viability, T/C","second compound 0.1 µM, first compound 0.000316 µM",128%
same,"viability, T/C","second compound 0.1 µM, first compound 0.001 µM",101%
same,"viability, T/C","second compound 0.1 µM, first compound 0.00316 µM",130%
same,"viability, T/C","second compound 0.1 µM, first compound 0.01 µM",104%
same,"viability, T/C",[3],87.9%
same,"viability, T/C",[4],71.3%
same,"viability, T/C","second compound 0.316 µM, first compound 0.000316 µM",109%
same,"viability, T/C","second compound 0.316 µM, first compound 0.001 µM",111%
same,"viability, T/C","second compound 0.316 µM, first compound 0.00316 µM",91.7%
same,"viability, T/C","second compound 0.316 µM, first compound 0.01 µM",93.1%
same,"viability, T/C",[5],80.4%
same,"viability, T/C",[6],65.5%
same,"viability, T/C","second compound 1 µM, first compound 0.000316 µM",97.5%
same,"viability, T/C","second compound 1 µM, first compound 0.001 µM",110%
same,"viability, T/C","second compound 1 µM, first compound 0.00316 µM",92%
same,"viability, T/C","second compound 1 µM, first compound 0.01 µM",92.9%
same,"viability, T/C",[7],81.9%
same,"viability, T/C",[8],72.9%
same,"viability, T/C","second compound 3.16 µM, first compound 0.000316 µM",109%
same,"viability, T/C","second compound 3.16 µM, first compound 0.001 µM",105%
same,"viability, T/C","second compound 3.16 µM, first compound 0.00316 µM",82.7%
same,"viability, T/C","second compound 3.16 µM, first compound 0.01 µM",73.6%
same,"viability, T/C",[9],75.5%
same,"viability, T/C",[10],73.4%
same,"viability, T/C","second compound 10 µM, first compound 0.000316 µM",83.8%
same,"viability, T/C","second compound 10 µM, first compound 0.001 µM",71.6%
same,"viability, T/C","second compound 10 µM, first compound 0.00316 µM",69.1%
same,"viability, T/C","second compound 10 µM, first compound 0.01 µM",77.1%
same,"viability, T/C",[11],81.5%
same,"viability, T/C",[12],62.5%
